# Data as given in patent US20100292216A1, “Methods and Compositions for the Treatment of Psychiatric Conditions” (ADAMAS PHARMACEUTICALS, INC., priority 2004, published 2010).
# Entries after “also recorded” stand apart in the source; their conditions may differ. Read-outs that look alike come from different tables or passages of the source.
# How the values were obtained:
# [1] = cited from earlier work; for Human PK T 1/2 / Tmax: parent drug
# [2] = humans; cited from earlier work
# [3] = IR administration; memantine 10 mg bid, duloxetine 60 mg qd; cited from earlier work
# [4] = tested on: depression model (forced swim test (FST)); assay: Dose ranging study in depression model (forced swim test); type: in vivo
# Source text: An isobolic experiment ensues where the drugs are combined in fractions of their EDXXs to add up to ED100 (i.e., ED50:ED50, ED25:ED75, etc.). The plot of the data is constructed. The experiment points that lie below the straight line between the ED50 points on the graph are indicative of synergy, points on the line are indicative of additive effects, and points above the line are indicative of inhibitory effects. The point of maximum deviation from the isobolic line is the optimal ratio. […] Similar protocols may be applied in a wide variety of validated animal models.
Compound,"T½ ([1]; head of release table, Example 3)",Human PK T 1/2 ([1]; humans) [h],Tmax ([1]; humans) [h],Main Dose Dependent Adverse Event [2],"Human PK T 1/2 (hrs) for ODV ([1]; humans, ODV) [h]","Tmax (hrs) for ODV ([1]; humans, ODV) [h]",Tmax [3] [h],Dose Dependent Tox [2],ED50 [4],T½ [3] [h]
"Fc1ccc([C@@H]2CCNC[C@H]2COc2ccc3c(c2)OCO3)cc1 [PAXIL/Paroxetine, paroxetine]",T½ = 21 hrs,21,5,Sexual dys,,,,,,
"CNCCCN1c2ccccc2CCc2ccccc21 [NORPRAMIN/Desipramine, desipramine]",,22,3 to 6,"Hypotension, urinary; also recorded: retention, QTC",,,,,,
"O=C1CC2(CCCC2)CC(=O)N1CCCCN1CCN(c2ncccn2)CC1 [BUSPAR/Buspirone, buspirone]",,7,1,"Drowsiness, dizziness",,,,,,
"CC(NC(C)(C)C)C(=O)c1cccc(Cl)c1 (stereo not shown) [WELLBUTRIN/Bupropion, bupropion]",,14,2,"Anorexia, constipation,; also recorded: seizures (Bold Warning)",,,,,,
"COc1ccc(C(CN(C)C)C2(O)CCCCC2)cc1 (stereo not shown) [EFFEXOR/Venlafaxine, venlafaxine]",,5,2,"nausea, constipation,; also recorded: anorexia, vomiting,; also recorded: somnolence,",11,3,,,,
"CC12CC3CC(C)(C1)CC(N)(C3)C2 [Memantine, 1-amino-3,5-dimethyladamantane]",,,,,,,3,"required, hallucination",approximately 15 μM,
"CN(C)CCC[C@@]1(c2ccc(F)cc2)OCc2cc(C#N)ccc21 [LEXAPRO/Escitalopram, escitalopram]",,,5,Sexual dys,,,,,,
"CNCC[C@H](Oc1cccc2ccccc12)c1cccs1 [CYMBALTA/Duloxetine, duloxetine]",,12,6,Dizziness,,,6,,,12
